Series [1] deals with CYP3A4 (midazolam metabolite site) (Homo sapiens (Human), UniProt P08684). The experiment in a line: Inhibition of enzyme activity of midazolam metabolite site of CYP3A4 in human liver microsome. The note with it: midazolam probe substrate, 30 minutes. Format: in vitro ADME. The protocol:
The effect of the compounds of the present invention on the enzyme activity of midazolam metabolite site of CYP3A4 in human liver microsomes was determined by the following experimental method.
• 1. Phosphate buffer solution (PBS) (Shanghai Basalmedia Technologies Co., Ltd., B320, similarly hereinafter); • 2. NADPH (Sigma N-1630); • 3. Human liver microsome (Corning Gentest); • 4. ABI QTrap 4000 liquid chromatograph/mass spectrometer (AB Sciex); • 5. Inertsil C8-3 column, 4.6×50 mm, 5 μm (Dikma Technologies Inc., USA); and • 6. CYP probe substrate (15 μM midazolam, SIGMA UC429) and positive control inhibitor (ketoconazole, SIGMA K1003). II. Experimental Procedures
100 mM PBS buffer was formulated, which was then used to formulate 2.5 mg/ml human microsome solution and 5 mM NADPH solution. The 5× concentration of the compound working solution was diluted with PBS in gradients (150, 50, 15, 5, 1.5, 0.15, 0.015, 0 μM). The 5× concentration of ketoconazole working solution was diluted with PBS in gradients (150, 50, 15, 5, 1.5, 0.15, 0.015, 0 μM). Midazolam working solution was diluted with PBS to a concentration of 15 μM.
(§1) 20 μl of 2.5 mg/ml microsome solution, 20 μl of 15 μM midazolam working solution, 20 μl of MgCl2 solution and 20 μl of the compound working solution (150, 50, 15, 5, 1.5, 0.15, 0.015, 0 μM, different reaction systems for each concentration) were mixed well. For the positive control group, the compound was replaced with the same concentration of ketoconazole. The mixture together with 5 mM NADPH solution was pre-incubated at 37° C. for 5 minutes. After 5 minutes, 20 μl of NADPH was added to each well, the reaction was initiated, and the plate was incubated for 30 minutes. All the incubated samples were present in duplicate. After 30 minutes, 250 μl of acetonitrile containing internal standard (100 ng/ml camptothecin) was added to all samples, mixed well, shaken at 800 rpm for 10 minutes, and then centrifuged at 3700 rpm for 10 minutes. 80 μl of the supernatant was taken and analyzed by LC-MS/MS.
The data was calculated by Graphpad Prism to obtain the IC50 values of the compounds on the midazolam metabolite site of CYP3A4, which are shown in Table 2.
Background: Microsomes from liver hold many membrane-bound enzymes, among them those of drug oxidation.

For a further series, the target named is CYP2D6 (Homo sapiens (Human), UniProt P10635). The experiment in a line: Inhibition of enzyme activity of CYP2D6 in human liver microsome. The series is classed as in vitro ADME. The note with it: dextromethorphan probe substrate, 30 minutes, read-out: IC50 of the inhibition effect on CYP2D6 enzyme. The method, then:
The effect of the compounds of the present invention on the enzyme activity of CYP2D6 in human liver microsome was determined by the following experimental method.
• 1. Phosphate buffer solution (PBS); • 2. NADPH (Sigma N-1630); • 3. Human liver microsome (Corning Gentest); • 4. ABI QTrap 4000 liquid chromatograph/mass spectrometer (AB Sciex); • 5. Inertsil C8-3 column, 4.6×50 mm, 5 μm (Dikma Technologies Inc., USA); and • 6. CYP probe substrate (20 μM dextromethorphan, SIGMA Q0750) and positive control inhibitor (quinidine, SIGMA D9684). II. Experimental Procedures
100 mM PBS buffer was formulated, which was then used to formulate 2.5 mg/ml human microsome solution and 5 mM NADPH solution. The 5× concentration of the compound working solution was diluted with PBS in gradients (150, 50, 15, 5, 1.5, 0.15, 0.015, 0 μM). The 5× concentration of quinidine working solution was diluted with PBS in gradients (150, 50, 15, 5, 1.5, 0.15, 0.015, 0 μM). Dextromethorphan working solution was diluted with PBS to a concentration of 20 μM.
as §1, with “of 20” for “of 15”, “μM dextromethorphan” for “μM midazolam”, “of quinidine.” for “of ketoconazole.”
The data was calculated by Graphpad Prism to obtain the IC50 values of the inhibition effect of the present compounds on CYP2D6 enzyme, which are shown in Table 3.

For a further series, the target named is hERG potassium channel (Homo sapiens (Human), UniProt Q12809). The experiment in a line: Blocking effect on hERG potassium current, automatic patch clamp (Patchliner) on HEK293-hERG stable cell line. The series is classed as cell-based. The protocol: The blocking effect of the compounds of the present application on hERG potassium current was determined using an automatic patch-clamp on a stable cell line transfected with hERG potassium channels.
The HEK293 cell line was transfected with pCDNA3.1(+) that had constructed the hERG gene. The monoclonal HEK293-hERG stable cell line was screened by adding G418. The HEK293-hERG stable cell line was subcultured at a density of 1:4 in MEM/EBSS medium (10% FBS, 400 μg/mL G418, 1% MEM non-essential amino acid solution (100×), 1% sodium pyruvate solution) and cultured within 48 to 72 hours for the automatic patch clamp experiment. On the day of the experiment, the cells were digested with 0.25% trypsin (life technologies, 12563-029), collected by centrifugation and resuspended with extracellular fluid (140 mM NaCl, 4 mM KCl, 1 mM MgCl2, 2 mM CaCl2, 5 mM MD glucose monohydrate, 10 mM HEPES, pH 7.4, 298 mOsmol) to obtain a cell suspension. The cell suspension was placed on the cell bank of the Patchliner instrument, the Patchliner instrument used a negative pressure controller to apply the cells to the chip (NPC-16), and the negative pressure attracted individual cells to the wells of the chip. When the whole cell mode was formed, the instrument got the hERG current according to the set hERG current-voltage program, and then the instrument automatically perfused the compound from low to high concentration. The currents at each concentration of the compound and the blank control current were analyzed by the HEAK EPC 10 patch clamp amplifier (Nanion), Pathlinersoftware and data analysis software provided by Pathcontrol HTsoftware.

Chain of CYP3A4 (midazolam metabolite site) (P08684 whole entry): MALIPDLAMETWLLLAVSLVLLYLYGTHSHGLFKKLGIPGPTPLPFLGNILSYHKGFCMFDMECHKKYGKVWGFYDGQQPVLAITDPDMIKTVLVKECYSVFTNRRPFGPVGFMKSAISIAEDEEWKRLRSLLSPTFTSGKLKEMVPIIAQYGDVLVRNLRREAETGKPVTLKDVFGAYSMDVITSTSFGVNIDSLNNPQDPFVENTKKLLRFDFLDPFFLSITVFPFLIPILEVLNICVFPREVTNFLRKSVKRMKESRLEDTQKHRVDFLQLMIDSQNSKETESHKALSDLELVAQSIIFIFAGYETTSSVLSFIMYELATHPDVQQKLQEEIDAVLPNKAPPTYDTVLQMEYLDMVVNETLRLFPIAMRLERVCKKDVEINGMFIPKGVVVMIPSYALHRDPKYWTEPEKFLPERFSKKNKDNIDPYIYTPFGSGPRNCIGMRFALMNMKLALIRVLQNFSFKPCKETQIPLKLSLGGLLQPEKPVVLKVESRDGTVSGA
Chain of hERG potassium channel (Q12809 whole entry): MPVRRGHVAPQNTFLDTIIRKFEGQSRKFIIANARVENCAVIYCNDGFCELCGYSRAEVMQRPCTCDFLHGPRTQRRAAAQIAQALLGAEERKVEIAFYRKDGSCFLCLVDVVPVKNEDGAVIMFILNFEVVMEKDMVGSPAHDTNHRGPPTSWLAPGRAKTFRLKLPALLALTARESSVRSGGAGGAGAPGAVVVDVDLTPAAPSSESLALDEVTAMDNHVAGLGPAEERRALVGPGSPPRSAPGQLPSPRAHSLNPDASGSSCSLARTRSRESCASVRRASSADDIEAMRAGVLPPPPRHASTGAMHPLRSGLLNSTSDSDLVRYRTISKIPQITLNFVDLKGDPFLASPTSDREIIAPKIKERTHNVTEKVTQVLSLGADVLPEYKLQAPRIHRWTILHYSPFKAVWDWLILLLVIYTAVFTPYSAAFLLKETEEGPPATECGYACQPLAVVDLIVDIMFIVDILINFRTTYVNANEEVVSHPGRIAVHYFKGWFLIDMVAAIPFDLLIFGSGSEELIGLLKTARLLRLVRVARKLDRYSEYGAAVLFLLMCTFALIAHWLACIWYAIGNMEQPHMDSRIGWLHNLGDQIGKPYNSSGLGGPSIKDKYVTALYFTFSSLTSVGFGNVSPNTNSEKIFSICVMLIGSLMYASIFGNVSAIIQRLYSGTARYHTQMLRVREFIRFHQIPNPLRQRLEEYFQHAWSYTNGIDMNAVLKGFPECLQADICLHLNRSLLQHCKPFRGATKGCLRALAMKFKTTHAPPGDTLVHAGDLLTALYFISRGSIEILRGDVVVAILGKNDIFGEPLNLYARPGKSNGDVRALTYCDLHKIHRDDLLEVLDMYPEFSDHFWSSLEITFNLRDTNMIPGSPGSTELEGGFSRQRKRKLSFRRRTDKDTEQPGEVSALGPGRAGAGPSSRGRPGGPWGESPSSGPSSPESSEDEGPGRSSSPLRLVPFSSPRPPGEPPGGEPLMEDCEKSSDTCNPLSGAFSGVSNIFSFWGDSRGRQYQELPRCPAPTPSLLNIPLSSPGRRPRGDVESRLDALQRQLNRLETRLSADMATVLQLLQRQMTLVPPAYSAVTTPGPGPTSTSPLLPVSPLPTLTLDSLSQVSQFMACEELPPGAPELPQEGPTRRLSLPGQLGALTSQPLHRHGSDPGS
Chain of CYP2D6 (P10635 whole entry): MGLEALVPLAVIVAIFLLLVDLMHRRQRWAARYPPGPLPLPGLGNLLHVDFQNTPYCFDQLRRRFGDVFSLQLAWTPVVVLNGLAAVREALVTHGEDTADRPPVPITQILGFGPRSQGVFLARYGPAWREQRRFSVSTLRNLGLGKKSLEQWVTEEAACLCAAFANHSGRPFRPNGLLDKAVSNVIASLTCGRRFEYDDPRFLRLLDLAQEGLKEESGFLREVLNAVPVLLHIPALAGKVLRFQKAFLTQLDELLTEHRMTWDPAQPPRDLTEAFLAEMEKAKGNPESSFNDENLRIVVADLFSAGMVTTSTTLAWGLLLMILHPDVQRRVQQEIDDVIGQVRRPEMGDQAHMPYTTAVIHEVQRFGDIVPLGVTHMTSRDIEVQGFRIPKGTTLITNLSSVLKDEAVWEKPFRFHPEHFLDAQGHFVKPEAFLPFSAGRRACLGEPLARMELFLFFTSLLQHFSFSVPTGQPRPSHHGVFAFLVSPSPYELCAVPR

Usually IC50 stands for the concentration needed to halve the response being measured. Regarding `CCCC[C@](C)(CO)Nc1nc(N)nc2cc(-c3ccc(CN4CCCC4)nc3)cnc12` [Example 2, (R)-2-((2-Amino-7-(6-(pyrrolidin-1-ylmethyl)pyridin-3-yl)pyrido[3,2-d]pyrimidin-4-yl)amino)-2-methylhexan-1-ol], the IC50 in series [1] is 27 µM; on CYP2D6, > 30 µM; against hERG potassium channel, 7 µM.
For `CCCC[C@](C)(CO)Nc1nc(N)nc2cc(-c3ccc(C4CCN(C)CC4)nc3)cnc12` [Example 4, (R)-2-((2-Amino-7-(6-(1-methylpiperidin-4-yl)pyridin-3-yl)pyrido[3,2-d]pyrimidin-4-yl)amino)-2-methylhexan-1-ol], in that order: > 30 µM, > 30 µM and 14 µM.
For `CCCCC(C)(CO)Nc1nc(N)nc2cc(-c3ccc(CN4CCN(C)CC4)nc3)cnc12` (stereo not drawn) [Example 5, 2-((2-Amino-7-(6-((4-methylpiperazin-1-yl)methyl)pyridin-3-yl)pyrido[3,2-d]pyrimidin-4-yl)amino)-2-methylhexan-1-ol], in that order: > 30 µM, > 30 µM and 17 µM.
For the compound `CCCC[C@](C)(CO)Nc1nc(N)nc2cc(-c3ccc(CN4CCN(C)CC4)nc3)cnc12` [Example 6, (R)-2-((2-Amino-7-(6-((4-methylpiperazin-1-yl)methyl)pyridin-3-yl)pyrido[3,2-d]pyrimidin-4-yl)amino)-2-methylhexan-1-ol], the values for the IC50 (in series [1]; at CYP2D6; against hERG potassium channel) were > 30 µM, > 30 µM and 26 µM, respectively.
For the compound `CCCC[C@](C)(CO)Nc1nc(N)nc2cc(-c3cnc(C4CCN(C)CC4)nc3)cnc12` [Example 8, (R)-2-((2-Amino-7-(2-(1-methylpiperidin-4-yl)pyrimidin-5-yl)pyrido[3,2-d]pyrimidin-4-yl)amino)-2-methylhexan-1-ol], the half-maximal inhibitory concentration (IC50) (in series [1]; at CYP2D6; on hERG potassium channel) was > 30 µM each time.

Values taken from patent US12162879B2, “Pyridopyrimidine derivative, preparation method therefor and medical use thereof” (Jiangsu Hengrui Medicine Co., Ltd., priority 2018, dated 2024).
